Experimental data as given in ChEMBL document CHEMBL5291721, “A preclinical secondary pharmacology resource illuminates target-adverse drug reaction associations of marketed drugs” (Nat Commun, 2023).
Where a SMILES comes first, the peptide text is derived from it.

Key:
[1] = molecular target: T1, Alpha-1A adrenergic receptor (Homo sapiens, UniProt P35348); format: functional, cell-based
T1 sequence (P35348 whole entry): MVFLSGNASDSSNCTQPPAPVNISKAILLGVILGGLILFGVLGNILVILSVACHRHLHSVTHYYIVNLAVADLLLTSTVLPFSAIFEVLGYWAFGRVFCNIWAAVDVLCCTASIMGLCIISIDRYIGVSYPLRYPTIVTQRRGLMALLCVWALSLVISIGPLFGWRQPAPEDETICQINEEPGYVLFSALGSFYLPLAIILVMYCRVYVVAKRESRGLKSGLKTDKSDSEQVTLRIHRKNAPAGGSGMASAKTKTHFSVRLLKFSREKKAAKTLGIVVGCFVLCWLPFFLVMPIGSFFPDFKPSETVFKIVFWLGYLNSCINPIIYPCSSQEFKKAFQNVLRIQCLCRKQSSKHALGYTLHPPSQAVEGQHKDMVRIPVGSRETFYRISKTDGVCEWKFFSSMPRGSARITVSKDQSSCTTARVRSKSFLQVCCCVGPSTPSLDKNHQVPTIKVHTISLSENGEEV

[2] = molecular target: Beta-2 adrenergic receptor (Homo sapiens, UniProt P07550)
Sequence of Beta-2 adrenergic receptor (P07550 whole entry): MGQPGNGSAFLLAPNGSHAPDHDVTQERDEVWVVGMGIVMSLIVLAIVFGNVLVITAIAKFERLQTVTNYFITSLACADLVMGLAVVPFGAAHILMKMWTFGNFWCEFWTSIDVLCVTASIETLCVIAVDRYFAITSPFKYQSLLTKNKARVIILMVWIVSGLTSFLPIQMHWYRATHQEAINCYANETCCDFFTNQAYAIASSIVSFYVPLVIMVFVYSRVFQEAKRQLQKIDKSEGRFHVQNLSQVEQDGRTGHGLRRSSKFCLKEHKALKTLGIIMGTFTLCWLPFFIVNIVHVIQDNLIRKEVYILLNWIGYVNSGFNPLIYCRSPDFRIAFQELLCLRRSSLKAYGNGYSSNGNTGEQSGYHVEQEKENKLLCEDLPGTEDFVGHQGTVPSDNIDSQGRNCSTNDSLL

[3] = molecular target: Voltage-dependent L-type calcium channel subunit alpha-1C (Rattus norvegicus, UniProt P22002); format: functional
Sequence of Voltage-dependent L-type calcium channel subunit alpha-1C (P22002 whole entry): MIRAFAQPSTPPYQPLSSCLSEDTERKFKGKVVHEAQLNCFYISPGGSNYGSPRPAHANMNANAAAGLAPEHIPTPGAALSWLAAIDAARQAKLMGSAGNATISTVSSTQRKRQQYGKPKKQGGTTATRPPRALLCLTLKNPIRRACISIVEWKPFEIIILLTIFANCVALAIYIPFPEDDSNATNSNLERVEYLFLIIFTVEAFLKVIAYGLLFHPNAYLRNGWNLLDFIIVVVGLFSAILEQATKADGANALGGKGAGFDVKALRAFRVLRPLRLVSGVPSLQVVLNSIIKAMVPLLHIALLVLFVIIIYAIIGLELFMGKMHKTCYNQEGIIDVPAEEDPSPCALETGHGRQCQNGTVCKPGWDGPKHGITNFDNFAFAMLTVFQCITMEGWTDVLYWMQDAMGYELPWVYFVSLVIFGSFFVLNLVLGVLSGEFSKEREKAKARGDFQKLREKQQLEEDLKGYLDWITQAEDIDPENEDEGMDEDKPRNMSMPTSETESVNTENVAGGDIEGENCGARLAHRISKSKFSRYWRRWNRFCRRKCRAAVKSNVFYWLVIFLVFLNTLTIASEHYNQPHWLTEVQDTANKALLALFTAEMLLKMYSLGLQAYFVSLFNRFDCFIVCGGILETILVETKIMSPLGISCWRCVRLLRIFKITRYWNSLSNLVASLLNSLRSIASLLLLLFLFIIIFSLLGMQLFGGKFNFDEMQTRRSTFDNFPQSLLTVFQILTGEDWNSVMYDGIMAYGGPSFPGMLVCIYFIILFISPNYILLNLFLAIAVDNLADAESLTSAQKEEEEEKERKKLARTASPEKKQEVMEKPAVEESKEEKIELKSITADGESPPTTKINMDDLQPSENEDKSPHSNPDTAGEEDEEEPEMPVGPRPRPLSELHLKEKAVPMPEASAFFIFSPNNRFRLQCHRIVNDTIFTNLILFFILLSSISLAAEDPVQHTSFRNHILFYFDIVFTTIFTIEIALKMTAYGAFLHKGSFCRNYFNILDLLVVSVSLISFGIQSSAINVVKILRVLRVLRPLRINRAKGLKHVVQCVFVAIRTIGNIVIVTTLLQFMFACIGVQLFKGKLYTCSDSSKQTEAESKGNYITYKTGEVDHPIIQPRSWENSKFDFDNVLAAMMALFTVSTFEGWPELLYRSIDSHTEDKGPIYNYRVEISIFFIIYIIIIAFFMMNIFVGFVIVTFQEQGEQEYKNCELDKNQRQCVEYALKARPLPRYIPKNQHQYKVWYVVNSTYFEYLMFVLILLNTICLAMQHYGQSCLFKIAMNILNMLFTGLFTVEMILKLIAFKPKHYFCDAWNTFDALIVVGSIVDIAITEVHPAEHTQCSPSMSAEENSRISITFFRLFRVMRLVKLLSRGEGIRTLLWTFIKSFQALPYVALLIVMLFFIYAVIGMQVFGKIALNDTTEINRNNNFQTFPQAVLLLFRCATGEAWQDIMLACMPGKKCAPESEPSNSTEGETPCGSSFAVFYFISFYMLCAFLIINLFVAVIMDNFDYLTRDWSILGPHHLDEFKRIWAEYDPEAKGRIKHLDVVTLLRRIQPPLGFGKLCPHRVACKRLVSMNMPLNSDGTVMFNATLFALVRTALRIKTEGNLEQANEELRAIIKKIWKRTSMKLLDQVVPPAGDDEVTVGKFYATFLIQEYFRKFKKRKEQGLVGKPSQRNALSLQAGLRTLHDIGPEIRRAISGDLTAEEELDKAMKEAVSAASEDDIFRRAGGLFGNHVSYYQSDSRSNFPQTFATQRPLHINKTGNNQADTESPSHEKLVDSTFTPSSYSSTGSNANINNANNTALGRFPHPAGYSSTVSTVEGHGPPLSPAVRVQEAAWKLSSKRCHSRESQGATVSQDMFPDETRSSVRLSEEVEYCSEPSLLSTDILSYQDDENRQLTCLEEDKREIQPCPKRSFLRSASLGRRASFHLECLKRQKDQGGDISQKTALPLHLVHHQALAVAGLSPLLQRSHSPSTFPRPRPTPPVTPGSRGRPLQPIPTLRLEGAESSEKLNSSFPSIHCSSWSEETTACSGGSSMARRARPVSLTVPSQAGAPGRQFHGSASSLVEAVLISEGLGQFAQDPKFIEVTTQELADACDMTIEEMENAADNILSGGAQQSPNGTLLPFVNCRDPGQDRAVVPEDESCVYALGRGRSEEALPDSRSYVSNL

[4] = molecular target: T2, 5-hydroxytryptamine receptor 1A (Homo sapiens, UniProt P08908); format: functional, cell-based
T2 sequence (P08908 whole entry): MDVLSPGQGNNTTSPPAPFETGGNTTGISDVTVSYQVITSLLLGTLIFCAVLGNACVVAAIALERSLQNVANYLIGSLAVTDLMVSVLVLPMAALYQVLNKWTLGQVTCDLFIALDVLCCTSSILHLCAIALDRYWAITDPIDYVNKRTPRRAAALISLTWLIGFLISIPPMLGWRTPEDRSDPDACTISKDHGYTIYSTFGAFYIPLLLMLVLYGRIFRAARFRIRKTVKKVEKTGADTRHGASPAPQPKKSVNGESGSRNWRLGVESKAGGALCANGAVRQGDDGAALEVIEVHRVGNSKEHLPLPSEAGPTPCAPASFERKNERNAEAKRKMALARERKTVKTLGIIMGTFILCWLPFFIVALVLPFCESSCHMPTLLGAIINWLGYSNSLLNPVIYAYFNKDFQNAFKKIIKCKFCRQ

Glucocorticoid receptor = molecular target: T3, Glucocorticoid receptor (Homo sapiens, UniProt P04150)
T3 sequence (P04150 whole entry): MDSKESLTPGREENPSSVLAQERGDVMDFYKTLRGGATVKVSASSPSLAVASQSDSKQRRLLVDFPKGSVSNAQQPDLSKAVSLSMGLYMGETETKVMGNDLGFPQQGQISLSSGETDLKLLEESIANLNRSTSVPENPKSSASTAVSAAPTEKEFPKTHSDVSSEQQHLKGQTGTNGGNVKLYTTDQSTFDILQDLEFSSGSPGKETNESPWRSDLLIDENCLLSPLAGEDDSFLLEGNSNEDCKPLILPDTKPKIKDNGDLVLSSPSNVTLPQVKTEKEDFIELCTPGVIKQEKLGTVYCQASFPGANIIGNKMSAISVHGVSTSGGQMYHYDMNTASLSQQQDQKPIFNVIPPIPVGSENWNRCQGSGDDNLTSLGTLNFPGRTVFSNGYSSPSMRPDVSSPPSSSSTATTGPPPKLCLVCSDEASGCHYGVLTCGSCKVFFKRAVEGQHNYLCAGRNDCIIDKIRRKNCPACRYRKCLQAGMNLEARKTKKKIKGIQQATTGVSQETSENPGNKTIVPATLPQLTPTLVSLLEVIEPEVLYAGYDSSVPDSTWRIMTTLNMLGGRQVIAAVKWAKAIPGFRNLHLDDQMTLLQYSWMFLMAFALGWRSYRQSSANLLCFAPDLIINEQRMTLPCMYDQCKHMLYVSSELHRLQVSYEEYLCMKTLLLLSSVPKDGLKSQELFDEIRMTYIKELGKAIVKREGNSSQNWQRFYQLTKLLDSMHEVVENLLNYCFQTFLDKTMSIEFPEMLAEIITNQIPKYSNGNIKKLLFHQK

[5] = molecular target: T4, Prostaglandin G/H synthase 1 (Rattus norvegicus, UniProt Q63921); format: functional
T4 sequence (Q63921 whole entry): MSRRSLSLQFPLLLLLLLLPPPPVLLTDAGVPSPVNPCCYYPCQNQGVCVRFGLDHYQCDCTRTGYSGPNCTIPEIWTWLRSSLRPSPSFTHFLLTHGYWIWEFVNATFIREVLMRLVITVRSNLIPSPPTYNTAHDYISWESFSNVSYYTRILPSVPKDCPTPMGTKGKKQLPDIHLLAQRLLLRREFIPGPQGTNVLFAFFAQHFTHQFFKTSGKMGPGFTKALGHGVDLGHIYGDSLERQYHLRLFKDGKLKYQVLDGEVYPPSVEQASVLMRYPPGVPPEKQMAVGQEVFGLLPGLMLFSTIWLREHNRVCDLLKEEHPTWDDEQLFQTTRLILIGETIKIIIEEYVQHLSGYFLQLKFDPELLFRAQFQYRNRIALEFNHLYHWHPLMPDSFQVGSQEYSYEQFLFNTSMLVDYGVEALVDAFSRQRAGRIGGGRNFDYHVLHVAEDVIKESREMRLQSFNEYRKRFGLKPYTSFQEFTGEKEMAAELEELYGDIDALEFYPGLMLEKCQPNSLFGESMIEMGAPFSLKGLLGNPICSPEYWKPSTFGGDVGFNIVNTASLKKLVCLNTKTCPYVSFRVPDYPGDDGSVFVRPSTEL

[6] = molecular target: T5, Equilibrative nucleoside transporter 1 (Homo sapiens, UniProt Q99808)
T5 sequence (Q99808 whole entry): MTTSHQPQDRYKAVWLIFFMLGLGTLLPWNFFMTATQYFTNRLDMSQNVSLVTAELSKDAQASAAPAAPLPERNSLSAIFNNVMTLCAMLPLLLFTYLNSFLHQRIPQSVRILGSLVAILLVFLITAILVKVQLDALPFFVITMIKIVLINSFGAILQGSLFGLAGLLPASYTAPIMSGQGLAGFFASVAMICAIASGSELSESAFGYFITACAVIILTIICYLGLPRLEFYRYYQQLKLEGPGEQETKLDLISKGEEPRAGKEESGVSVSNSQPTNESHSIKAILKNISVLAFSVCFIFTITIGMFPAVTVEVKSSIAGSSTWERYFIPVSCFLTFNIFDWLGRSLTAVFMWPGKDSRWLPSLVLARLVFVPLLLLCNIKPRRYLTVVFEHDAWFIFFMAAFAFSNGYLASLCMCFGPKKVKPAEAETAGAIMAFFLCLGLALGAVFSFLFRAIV

D(3) dopamine receptor = D(3) dopamine receptor (Homo sapiens, UniProt P35462)
Sequence of D(3) dopamine receptor (P35462 whole entry): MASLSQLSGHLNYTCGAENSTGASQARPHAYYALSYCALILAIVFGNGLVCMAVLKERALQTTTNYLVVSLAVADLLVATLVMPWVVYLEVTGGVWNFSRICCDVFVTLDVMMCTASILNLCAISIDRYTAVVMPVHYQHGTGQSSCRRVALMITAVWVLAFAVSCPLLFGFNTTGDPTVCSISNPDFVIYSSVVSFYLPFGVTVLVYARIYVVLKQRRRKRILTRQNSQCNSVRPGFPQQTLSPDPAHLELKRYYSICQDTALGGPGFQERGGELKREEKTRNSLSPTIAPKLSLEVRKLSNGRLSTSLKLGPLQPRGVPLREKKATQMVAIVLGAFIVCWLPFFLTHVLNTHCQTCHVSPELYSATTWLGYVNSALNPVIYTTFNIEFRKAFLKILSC

Mu-type opioid receptor = Mu-type opioid receptor (Homo sapiens, UniProt P35372)
Sequence of Mu-type opioid receptor (P35372 whole entry): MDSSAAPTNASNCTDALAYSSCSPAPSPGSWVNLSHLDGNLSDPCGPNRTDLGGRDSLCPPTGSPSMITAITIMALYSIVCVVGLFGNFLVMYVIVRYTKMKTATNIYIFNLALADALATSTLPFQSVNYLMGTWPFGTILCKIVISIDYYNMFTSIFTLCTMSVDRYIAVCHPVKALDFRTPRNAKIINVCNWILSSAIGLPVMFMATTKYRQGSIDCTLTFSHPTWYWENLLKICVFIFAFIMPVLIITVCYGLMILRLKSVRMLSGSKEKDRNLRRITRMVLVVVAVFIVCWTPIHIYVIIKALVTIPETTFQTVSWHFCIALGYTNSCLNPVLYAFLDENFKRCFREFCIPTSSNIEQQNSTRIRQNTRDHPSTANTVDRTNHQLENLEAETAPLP
Also: assay procedure not described here.

Row | AC50 [1] | AC50 [2] | AC50 [3] | AC50 [4] | AC50 (Glucocorticoid receptor) | AC50 [5] | AC50 [6] | AC50 (D(3) dopamine receptor) | AC50 (Mu-type opioid receptor) | Compound
1 | > 30 µM | > 30 µM | > 30 µM | > 30 µM | > 30 µM | > 30 µM | > 30 µM | > 30 µM | – | OCC(CO)N[C@H]1C[C@](O)(CO)[C@@H](O)[C@H](O)[C@H]1O [VOGLIBOSE]
2 | > 30 µM | > 30 µM | > 30 µM | > 30 µM | > 30 µM | > 30 µM | > 30 µM | > 30 µM | – | CC1=C(/C=C/C(C)=C/C=C/C(C)=C/C(=O)Oc2c(C)c(C)c3c(c2C)CCC(C)(CCCC(C)CCCC(C)CCCC(C)C)O3)C(C)(C)CCC1 (stereo not drawn) [TRETINOIN TOCOFERIL]
3 | > 30 µM | > 30 µM | > 30 µM | > 30 µM | > 30 µM | > 30 µM | > 30 µM | > 30 µM | – | CN(C)CCOCC(=O)NC12CC3CC(CC(C3)C1)C2 [TROMANTADINE]
4 | – | > 10 µM | > 10 µM | > 10 µM | – | > 10 µM | > 30 µM | > 30 µM | > 30 µM | CC1CC(OC(=O)C(O)c2ccccc2)CC(C)(C)C1 (stereo not drawn) [CYCLANDELATE]
5 | > 30 µM | > 30 µM | > 30 µM | > 30 µM | > 30 µM | > 30 µM | > 30 µM | 9.4 µM | – | CCc1ccc(C(=O)C(C)CN2CCCCC2)cc1 (stereo not drawn) [EPERISONE]

The next lines start with the molecule.

Row | Compound | AC50 [1] | AC50 [2] | AC50 [3] | AC50 [4] | AC50 (Glucocorticoid receptor) | AC50 [5] | AC50 [6] | AC50 (D(3) dopamine receptor) | AC50 (Mu-type opioid receptor)
6 | CNCCc1ccccn1 [BETAHISTINE] | > 30 µM | > 30 µM | > 30 µM | > 30 µM | > 30 µM | > 30 µM | > 30 µM | > 30 µM | –
7 | CO/N=C(\C(=O)N[C@@H]1C(=O)N2C(C(=O)O)=C(CSc3nc(C)c(CC(=O)O)s3)CS[C@H]12)c1csc(N)n1 [CEFODIZIME] | > 30 µM | > 30 µM | > 30 µM | > 30 µM | > 30 µM | 27 µM | > 30 µM | > 30 µM | –
8 | C[C@H](N)C(=O)N[C@@H](CCC(N)=O)C(=O)O [ALANYL GLUTAMINE] (H-Ala-Gln-OH) | > 30 µM | > 30 µM | > 30 µM | > 30 µM | > 30 µM | > 30 µM | > 30 µM | > 30 µM | –
9 | O=C(O)c1ccc2nc(-c3cc(Cl)cc(Cl)c3)oc2c1 | > 30 µM | > 30 µM | > 30 µM | > 30 µM | > 30 µM | > 30 µM | > 30 µM | > 1 µM | –
10 | Nc1nc(Cl)nc2c1ncn2[C@@H]1O[C@H](CO)[C@@H](O)[C@@H]1F [CLOFARABINE] | – | > 30 µM | > 30 µM | > 30 µM | – | > 30 µM | > 30 µM | > 30 µM | > 30 µM
